Data as given in ChEMBL document CHEMBL3994563 (Medchemcomm, 2016).
Active and inactive are the calls of the source. No cut-off for these calls is given here.

Experiments:
A-375 [1] = assay: Antiproliferative activity against human A375 cells after 48 hrs by MTT assay; format: functional, cell-based; conditions: A-375, 48 h
MIA PaCa-2 [2] = assay: Antiproliferative activity against human MIAPaCa2 cells after 48 hrs by MTT assay; format: functional, cell-based; conditions: MIA PaCa-2, 48 h
Caco-2 = assay: Antiproliferative activity against human Caco2 cells after 48 hrs by MTT assay; format: functional, cell-based; conditions: Caco-2, 48 h
A549 = assay: Antiproliferative activity against human A549 cells after 48 hrs by MTT assay; format: functional, cell-based; conditions: A549, 48 h
PC-3 = assay: Antiproliferative activity against human PC3 cells after 48 hrs by MTT assay; format: functional, cell-based; conditions: PC-3, 48 h
[3] = Antiproliferative activity against human HPDEC after 48 hrs by MTT assay; format: cell-based
A-375 [4] = assay: Antiproliferative activity against human A375 cells assessed as reduction in cell viability at IC50 after 24 hrs by calcein AM staining based confocal microscopy; format: functional
MIA PaCa-2 [5] = assay: Antiproliferative activity against human MIAPaCa2 cells assessed as reduction in cell viability at IC50 after 24 hrs by calcein AM staining based confocal microscopy; format: functional
A-375 [6] = assay: Antiproliferative activity against human A375 cells assessed as reduction in colony formation measured after 10 to 14 days by crystal violet staining based microscopic method; format: functional, cell-based
MIA PaCa-2 [7] = assay: Antiproliferative activity against human MIAPaCa2 cells assessed as reduction in colony formation measured after 10 to 14 days by crystal violet staining based microscopic method; format: functional, cell-based
MIA PaCa-2 [8] = assay: Cell cycle arrest in human MIAPaCa2 cells assessed as accumulation at G2/M phase at IC50 after 48 hrs by propidium iodide staining based flow cytometry; format: functional
A-375 [9] = assay: Cell cycle arrest in human A375 cells assessed as accumulation at G2/M phase at IC50 after 48 hrs by propidium iodide staining based flow cytometry; format: functional
A-375 [10] = assay: Cell cycle arrest in human A375 cells assessed as decrease in G1 population at IC50 after 48 hrs by propidium iodide staining based flow cytometry; format: functional
MIA PaCa-2 [11] = assay: Cell cycle arrest in human MIAPaCa2 cells assessed as decrease in G1 population at IC50 after 48 hrs by propidium iodide staining based flow cytometry; format: functional
A-375 [12] = assay: Cell cycle arrest in human A375 cells assessed as accumulation at sub-G0/G1 phase at IC50 after 48 hrs by propidium iodide staining based flow cytometry; format: functional
MIA PaCa-2 [13] = assay: Cell cycle arrest in human MIAPaCa2 cells assessed as accumulation at sub-G0/G1 phase at IC50 after 48 hrs by propidium iodide staining based flow cytometry; format: functional

Structure (SMILES)	IC50 (A-375 [1]) [µM]	IC50 (MIA PaCa-2 [2]) [µM]	IC50 (Caco-2) [µM]	IC50 (A549) [µM]	IC50 (PC-3) [µM]	IC50 [3] [µM]	Activity (A-375 [4])	Activity (MIA PaCa-2 [5])	Activity (A-375 [6])	Activity (MIA PaCa-2 [7])	Activity (MIA PaCa-2 [8])	Activity (A-375 [9])	Activity (A-375 [10])	Activity (MIA PaCa-2 [11])	Activity (A-375 [12])	Activity (MIA PaCa-2 [13])
CC(=O)O[C@H]1C(=O)[C@@]2(C)[C@H]([C@H](OC(=O)c3ccccc3)[C@]3(O)C[C@H](OC(=O)[C@H](O)[C@@H](NC(=O)c4ccccc4)c4ccccc4)C(C)=C1C3(C)C)[C@]1(OC(C)=O)CO[C@@H]1C[C@@H]2O [PACLITAXEL]	0.68	2.5	2.8	0.4	1.9	–	–	–	–	–	–	–	–	–	–	–
COc1cc(C(=O)c2c(C#Cc3ccccc3)sc3c2CCCC3)cc(OC)c1OC	3.88	5.08	8.26	12.9	15.5	> 50	–	–	–	–	–	–	–	–	–	–
COc1ccc(C(=O)c2c(-c3ccccc3)sc3c2CCCC3)cc1	5.34	8.84	18.6	9.42	23.4	21.4	–	–	–	–	–	–	–	–	–	–
Cc1ccc(C#Cc2sc3c(c2C(=O)c2ccccc2)CCCC3)cc1	> 100	> 100	> 100	> 100	> 100	–	–	–	–	–	–	–	–	–	–	–
COc1ccc(C(=O)c2c(C#Cc3ccccc3)sc(C)c2C)cc1	9.35	29.4	18.3	13.6	21.4	–	–	–	–	–	–	–	–	–	–	–
Cc1sc(C#Cc2ccccc2)c(C(=O)c2ccccc2)c1C	28	31.2	34.2	24	31.5	–	–	–	–	–	–	–	–	–	–	–
Cc1ccc(C(=O)c2c(-c3ccccc3)sc3c2CCCC3)cc1	27	36.4	47.6	32.7	37.5	–	–	–	–	–	–	–	–	–	–	–
Cc1ccc(C#Cc2sc(C)c(C)c2C(=O)c2ccccc2)cc1	> 100	69.8	> 100	> 100	51.4	–	–	–	–	–	–	–	–	–	–	–
COc1cc(C(=O)c2c(C#Cc3ccccc3)sc(C)c2C)cc(OC)c1OC	1.17	4.32	7.49	6.51	6.49	36.1	–	–	–	–	–	–	–	–	–	–
Cc1ccc(C#Cc2sc(C)c(C)c2C(=O)c2ccc([N+](=O)[O-])cc2)cc1	26.4	79	31.4	> 100	40.6	–	–	–	–	–	–	–	–	–	–	–
Cc1sc(-c2ccccc2)c(C(=O)c2ccc([N+](=O)[O-])cc2)c1C	> 100	23.7	64.7	31	> 100	–	–	–	–	–	–	–	–	–	–	–
Cc1ccc(C#Cc2sc(C)c(C)c2C(=O)c2ccc(C)cc2)cc1	> 100	> 100	> 100	45.3	> 100	–	–	–	–	–	–	–	–	–	–	–
O=C(c1ccc([N+](=O)[O-])cc1)c1c(C#Cc2ccccc2)sc2c1CCCC2	0.81	3	4.52	2.8	12.3	> 50	Active	Active	Active	Active	Active	Active	Active	Active	Active	Active
O=C(c1ccccc1)c1c(C#Cc2ccccc2)sc2c1CCCC2	4.63	8.48	14.8	20.2	23.1	18.9	–	–	–	–	–	–	–	–	–	–
Cc1ccc(C#Cc2sc3c(c2C(=O)c2ccc([N+](=O)[O-])cc2)CCCC3)cc1	13.1	16.4	34.2	30.1	21.4	–	–	–	–	–	–	–	–	–	–	–
Cc1sc(C#Cc2ccccc2)c(C(=O)c2ccc([N+](=O)[O-])cc2)c1C	21.2	21.9	25.1	19	33.4	–	–	–	–	–	–	–	–	–	–	–
Cc1ccc(C#Cc2sc3c(c2C(=O)c2ccc(C)cc2)CCCC3)cc1	30.7	42	31.5	27.3	48.2	–	–	–	–	–	–	–	–	–	–	–
Cc1ccc(C(=O)c2c(C#Cc3ccccc3)sc3c2CCCC3)cc1	10.1	17.2	10.4	11.3	20.4	–	–	–	–	–	–	–	–	–	–	–
COc1cc(C(=O)c2c(C#Cc3ccc(C)cc3)sc3c2CCCC3)cc(OC)c1OC	22.5	21.2	28.3	18.9	37.5	–	–	–	–	–	–	–	–	–	–	–
Cc1ccc(C(=O)c2c(-c3ccccc3)sc3c2CCCCC3)cc1	3.71	24.6	15.7	6.28	23.4	25.8	–	–	–	–	–	–	–	–	–	–
O=C(c1ccc([N+](=O)[O-])cc1)c1c(-c2ccccc2)sc2c1CCCCC2	1.07	5.35	6.1	5.39	40.1	> 50	Active	Active	Active	Active	Active	Active	Active	Active	Active	Active
Cc1ccc(C(=O)c2c(-c3ccccc3)sc(C)c2C)cc1	51.2	> 100	> 100	> 100	26	–	–	–	–	–	–	–	–	–	–	–
COc1ccc(C(=O)c2c(C#Cc3ccccc3)sc3c2CCCC3)cc1	1.9	35.2	16.8	8.14	14.5	35.6	–	–	–	–	–	–	–	–	–	–
Cc1sc(-c2ccccc2)c(C(=O)c2ccccc2)c1C	31.1	> 100	38	21.9	39.5	–	–	–	–	–	–	–	–	–	–	–
Cc1ccc(C(=O)c2c(C#Cc3ccccc3)sc(C)c2C)cc1	43.2	> 100	> 100	39.5	25.4	–	–	–	–	–	–	–	–	–	–	–
O=C(c1ccccc1)c1c(-c2ccccc2)sc2c1CCCC2	16.3	18.2	20.4	14	23.8	–	–	–	–	–	–	–	–	–	–	–
O=C(c1ccc([N+](=O)[O-])cc1)c1c(-c2ccccc2)sc2c1CCCC2	20.5	13.2	28.1	24.2	14.6	–	–	–	–	–	–	–	–	–	–	–
O=C(c1ccccc1)c1c(-c2ccccc2)sc2c1CCCCC2	7.72	12	18.1	15.8	22.1	14.6	–	–	–	–	–	–	–	–	–	–
